Values quoted from earlier work, collected in patent publication US7115565B2, “Chemotherapeutic microemulsion compositions of paclitaxel with improved oral bioavailability” (Pharmacia & Upjohn Company, priority 2001, dated 2006).

Conditions: reported in the background

- oral bioavailability: very low
SMILES: CC(=O)O[C@H]1C(=O)[C@@]2(C)[C@H]([C@H](OC(=O)c3ccccc3)[C@]3(O)C[C@H](OC(=O)[C@H](O)[C@@H](NC(=O)c4ccccc4)c4ccccc4)C(C)=C1C3(C)C)[C@]1(OC(C)=O)CO[C@@H]1C[C@@H]2O [Paclitaxel]
